From patent US20100113607A1, “Pharmaceutical Compositions” (priority 2000, published 2010) come the findings set out here.

The assay deals with onychomycosis. Nature of the assay: Topical treatment of a laser-perforated nail of a patient suffering from onychomycosis. As to conditions: composition containing 10% terbinafine by total weight, administered to laser-perforated nail, once daily for 12 weeks. The assay is classed as in vivo, human. How it is done: A composition containing 10% terbinafine based on the total weight of the composition is prepared and administered to a laser-perforated nail of a patient suffering from onychomycosis once daily for 12 weeks.

As for `CN(C/C=C/C#CC(C)(C)C)Cc1cccc2ccccc12` [terbinafine], the clinical effectiveness entry is “progress of clinical effectiveness is seen with growth of the healthy nail”.
